Results published in patent US6974870B2, “Substituted 3-amino-thieno [2,3-b]pyridine-2-carboxylic acid amide compounds and processes for preparing and their uses” (Boehringer Ingelheim Phamaceuticals, Inc., priority 2002, dated 2005).

These compounds were tested against T1, human IKKβ (Homo sapiens, UniProt O14920) (assay: IKKβ kinase inhibition assay (phosphorylation of IκBα substrate, 33P-ATP)). Settings: flag-tagged human IKKβ 0.9 μg/ml, GST-IκBα (1-54) 53 μg/ml, 250 nM ATP, 1 hour at 25° C.
T1 construct: FLAG (N)
T1 sequence (O14920 1-756): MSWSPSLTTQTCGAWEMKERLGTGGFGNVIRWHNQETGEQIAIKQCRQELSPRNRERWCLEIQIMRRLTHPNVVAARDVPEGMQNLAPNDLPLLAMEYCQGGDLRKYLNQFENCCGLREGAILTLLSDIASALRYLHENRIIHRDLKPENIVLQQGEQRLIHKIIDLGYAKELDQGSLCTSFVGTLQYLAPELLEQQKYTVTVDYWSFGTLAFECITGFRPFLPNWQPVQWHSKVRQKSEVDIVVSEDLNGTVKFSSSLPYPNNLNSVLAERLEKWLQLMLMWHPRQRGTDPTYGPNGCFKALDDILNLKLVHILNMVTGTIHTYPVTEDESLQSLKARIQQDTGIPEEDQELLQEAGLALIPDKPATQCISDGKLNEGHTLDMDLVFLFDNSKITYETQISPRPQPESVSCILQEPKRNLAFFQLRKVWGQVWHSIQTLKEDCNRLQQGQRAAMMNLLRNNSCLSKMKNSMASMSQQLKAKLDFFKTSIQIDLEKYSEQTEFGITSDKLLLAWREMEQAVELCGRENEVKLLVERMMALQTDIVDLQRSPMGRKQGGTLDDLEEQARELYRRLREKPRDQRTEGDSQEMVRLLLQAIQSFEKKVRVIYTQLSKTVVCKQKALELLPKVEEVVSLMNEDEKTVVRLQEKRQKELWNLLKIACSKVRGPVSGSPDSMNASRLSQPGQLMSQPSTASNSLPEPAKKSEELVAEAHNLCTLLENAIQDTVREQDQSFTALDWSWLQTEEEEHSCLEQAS
Format: biochemical
Protocol: (§1) The inhibition of IKKα and IKKβ by the compounds of the present invention was determined with the following assay that measures the phosphorylation of the IκBα substrate by the respective kinases. The enzymes used in the assay were N-terminally flag-tagged versions of the human IKKβ or IKKα and the substrate was a GST fusion protein with IκBα (amino acids 1-54).
(§2) The reaction mixtures (60 μl) contained 20 mM HEPES pH 7.5, 10 mM MgCl2, 2 mM MnCl2, 100 mM NaCl, 100 μM Na3VO4, 20 mM β-glycerophosphate, 1 mM DTT, 2% DMSO, 250 nM ATP, 0.4 nM [^33P]ATP (specific activity, 3000 Ci/mmol), IκBα substrate, IKK enzyme and test compound. The reaction mixtures contained either 3.6 μg/ml IKKα and 245 μg/ml IκBα or 0.9 μg/ml IKKβ and 53 μg/ml IκBα.
(§3) Reactions were initiated by adding a solution of IκBα substrate and ATP to polypropylene plates containing IKK enzyme that was pre-incubated for 5 minutes with test compound. Then the reaction mixtures were incubated for 1 hour at 25° C., placed on ice and quenched by the addition of 150 μl 10% trichloroacetic acid and 5% disodium pyrophosphate. After mixing, the entire contents of the quenched reaction mixtures were transferred to a pre-wetted Packard UniFilter filtration plate, aspirated and washed 6 times with 250 μl of ddH2O using the Packard Filtermate Harvester. Filtration plates were then air dried, supplemented with 40 μl of Microscint 20 scintillation fluid and the ^33P-labeled reaction products were quantified using the Packard TopCount scintillation counter.
(§4) Compounds were tested in three-fold serial dilutions and inhibitor concentrations to achieve 50% inhibition of enzyme activity (i.e., IC50) were derived from dose-reponse curves using SAS software (SAS Institute, Cary N.C.). A non-linear regression analysis based on the Hill equation was applied to the percent inhibition versus concentration data. In all cases, compound concentrations were verified by HPLC.
With `CCCc1cc(N2CCC(NCC(O)COc3cccc(OC)c3)CC2)nc2sc(C(N)=O)c(N)c12` (centres unmarked) [3-Amino-6-{4-[2-hydroxy-3-(3-methoxy-phenoxy)-propylamino]-piperidin-1-yl}-4-propyl-thieno[2,3-b] pyridine-2-carboxylic acid amide] the IC50 was < 1 µM. For `CCCc1cc(N2CCC(NCC(O)COc3ccc(C(F)(F)F)cc3)CC2)nc2sc(C(N)=O)c(N)c12` (centres unmarked) [3-Amino-6-{4-[2-hydroxy-3-(4-trifluoromethyl-phenoxy)-propylamino]-piperidin-1-yl}-4-propyl-thieno[2,3-b] pyridine-2-carboxylic acid amide], the IC50 was < 1 µM. In the case of `CCCc1cc(N2CCC(NCC(O)COc3cccc4ccccc34)CC2)nc2sc(C(N)=O)c(N)c12` (centres unmarked) [3-Amino-6-{4-[2-hydroxy-3-(naphthalen-1-yloxy)-propylamino]-piperidin-1-yl}-4-propyl-thieno[2,3-b] pyridine-2-carboxylic acid amide], the IC50 is reported as < 1 µM. With `CCCc1cc(N2CCC(NCC(O)COc3ccc4ccccc4c3)CC2)nc2sc(C(N)=O)c(N)c12` (centres unmarked) [3-Amino-6-{4-[2-hydroxy-3-(naphthalen-2-yloxy)-propylamino]-piperidin-1-yl}-4-propyl-thieno[2,3-b] pyridine-2-carboxylic acid amide] the IC50 was < 1 µM. For `CCCc1cc(N2CCC(NCC(O)Cc3cccc(C(N)=O)c3)CC2)nc2sc(C(N)=O)c(N)c12` (centres unmarked) [3-Amino-6-{4-[3-(3-carbamoyl-phenyl)-2-hydroxy-propylamino]-piperidin-1-yl}-4-propyl-thieno[2,3-b] pyridine-2-carboxylic acid amide], the IC50 was < 1 µM. `CCCc1cc(N2CCC(NCC(O)CNc3cccc(C(N)=O)c3)CC2)nc2sc(C(N)=O)c(N)c12` (centres unmarked) [3-Amino-6-{4-[3-(3-carbamoyl-phenylamino)-2-hydroxy-propylamino]-piperidin-1-yl}-4-propyl-thieno[2,3-b] pyridine-2-carboxylic acid amide] was tested, and the IC50 was < 1 µM. For `CCCc1cc(N2CCC(NCC(O)COc3cccc(C#N)c3)CC2)nc2sc(C(N)=O)c(N)c12` (centres unmarked) [3-Amino-6-{4-[3-(3-cyano-phenoxy)-2-hydroxy-propylamino]-piperidin-1-yl}-4-propyl-thieno[2,3-b] pyridine-2-carboxylic acid amide], the IC50 was < 1 µM. For `CCCc1cc(N2CCC(NCC(O)Cc3ccc(C(N)=O)cc3)CC2)nc2sc(C(N)=O)c(N)c12` (centres unmarked) [3-Amino-6-{4-[3-(4-carbamoyl-phenyl)-2-hydroxy-propylamino]-piperidin-1-yl}-4-propyl-thieno[2,3-b] pyridine-2-carboxylic acid amide], the IC50 was < 1 µM. With `CCCc1cc(N2CCC(NCC(O)COc3ccc(C#N)cc3)CC2)nc2sc(C(N)=O)c(N)c12` (centres unmarked) [3-Amino-6-{4-[3-(4-cyano-phenoxy)-2-hydroxy-propylamino]-piperidin-1-yl}-4-propyl-thieno[2,3-b] pyridine-2-carboxylic acid amide] the IC50 was < 1 µM. For `CCCc1cc(N2CCC(NCC(O)COc3ccc(F)cc3)CC2)nc2sc(C(N)=O)c(N)c12` (centres unmarked) [3-Amino-6-{4-[3-(4-fluoro-phenoxy)-2-hydroxy-propylamino]-piperidin-1-yl}-4-propyl-thieno[2,3-b] pyridine-2-carboxylic acid amide], the IC50 was < 1 µM.

These compounds were tested against T2, human IKKα (Homo sapiens, UniProt O15111) (assay: IKKα kinase inhibition assay (phosphorylation of IκBα substrate, 33P-ATP)). Settings: flag-tagged human IKKα 3.6 μg/ml, GST-IκBα (1-54) 245 μg/ml, 250 nM ATP, 1 hour at 25° C.
T2 construct: FLAG (N)
T2 sequence (O15111 1-745): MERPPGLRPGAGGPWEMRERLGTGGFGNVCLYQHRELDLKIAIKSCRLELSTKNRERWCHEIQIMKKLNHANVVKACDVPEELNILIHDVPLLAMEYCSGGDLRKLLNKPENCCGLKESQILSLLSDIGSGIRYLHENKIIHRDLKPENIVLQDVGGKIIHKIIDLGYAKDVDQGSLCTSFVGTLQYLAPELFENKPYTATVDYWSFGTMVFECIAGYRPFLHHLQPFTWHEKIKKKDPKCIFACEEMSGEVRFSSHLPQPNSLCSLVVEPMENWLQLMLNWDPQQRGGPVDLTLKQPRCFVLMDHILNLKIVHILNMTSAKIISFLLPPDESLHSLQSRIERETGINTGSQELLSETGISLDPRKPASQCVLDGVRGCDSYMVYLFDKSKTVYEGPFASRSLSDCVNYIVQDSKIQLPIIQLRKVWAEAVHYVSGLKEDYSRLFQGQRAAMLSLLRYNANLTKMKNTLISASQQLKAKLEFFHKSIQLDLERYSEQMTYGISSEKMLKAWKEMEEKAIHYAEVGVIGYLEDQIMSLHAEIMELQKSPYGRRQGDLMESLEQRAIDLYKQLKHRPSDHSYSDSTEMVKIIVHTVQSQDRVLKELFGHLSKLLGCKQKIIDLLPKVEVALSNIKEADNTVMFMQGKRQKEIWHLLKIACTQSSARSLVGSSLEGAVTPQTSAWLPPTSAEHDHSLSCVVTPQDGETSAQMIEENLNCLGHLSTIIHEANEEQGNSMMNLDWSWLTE
Format: biochemical
Protocol: as §1, §2, §3, §4
For `Cc1cc(-c2ccc(S(C)(=O)=O)cc2)c2c(N)c(C(N)=O)sc2n1` [3-Amino-4-(4-methanesulfonyl-phenyl)-6-methyl-thieno[2,3-b]pyridine-2-carboxylic acid amide], the IC50 was ≤ 10 µM. `Cc1cc(/C=C/c2ccc(Cl)cc2)c2c(N)c(C(N)=O)sc2n1` [3-Amino-4-[(E)-2-(4-chloro-phenyl)-vinyl]-6-methyl-thieno[2,3-b]pyridine-2-carboxylic acid amide] was tested, and the IC50 was ≤ 10 µM. For `Cc1cc(/C=C/c2ccc(F)cc2)c2c(N)c(C(N)=O)sc2n1` [3-Amino-4-[(E)-2-(4-fluoro-phenyl)-vinyl]-6-methyl-thieno[2,3-b]pyridine-2-carboxylic acid amide], the IC50 was ≤ 10 µM. `Cc1cc(-c2ccco2)c2c(N)c(C(N)=O)sc2n1` [3-Amino-4-furan-2-yl-6-methyl-thieno[2,3-b]pyridine-2-carboxylic acid amide] was tested, and the IC50 was ≤ 10 µM. In the case of `CC(C)Oc1ccnc2sc(C(N)=O)c(N)c12` [3-Amino-4-isopropoxy-thieno[2,3-b]pyridine-2-carboxylic acid amide], the IC50 is reported as ≤ 10 µM. `CCCc1cc(N2CCC(N)(C#N)CC2)nc2sc(C(N)=O)c(N)c12` [3-Amino-6-(4-amino-4-cyano-piperidin-1-yl)-4-propyl-thieno[2,3-b] pyridine-2-carboxylic acid amide] was tested, and the IC50 was ≤ 10 µM. For `NC(=O)c1sc2nc(N3CCC(N)CC3)cc(-c3ccc([N+](=O)[O-])cc3)c2c1N` [3-Amino-6-(4-amino-piperidin-1-yl)-4-(4-nitro-phenyl)-thieno[2,3-b]pyridine-2-carboxylic acid amide], the IC50 was ≤ 10 µM. With `NC(=O)c1sc2nc(N3CCC(N)CC3)cc(/C=C/c3ccccc3)c2c1N` [3-Amino-6-(4-amino-piperidin-1-yl)-4-((E)-styryl)-thieno[2,3-b]pyridine-2-carboxylic acid amide] the IC50 was ≤ 10 µM. For `CSc1cc(N2CCC(N)CC2)nc2sc(C(N)=O)c(N)c12` [3-Amino-6-(4-amino-piperidin-1-yl)-4-methylsulfanyl-thieno[2,3-b]pyridine-2-carboxylic acid amide], the IC50 was ≤ 10 µM. For `CCCc1cc(N2CCC(N)CC2)nc2sc(C(N)=O)c(N)c12` [3-Amino-6-(4-amino-piperidin-1-yl)-4-propyl-thieno[2,3-b] pyridine-2-carboxylic acid amide], the IC50 was ≤ 10 µM. In the case of `CCCc1cc(N2CCN(C)CC2)nc2sc(C(N)=O)c(N)c12` [3-Amino-6-(4-methyl-piperazin-1-yl)-4-propyl-thieno[2,3-b] pyridine-2-carboxylic acid amide], the IC50 is reported as ≤ 10 µM. For `CCCc1cc(N2CCC(NC)CC2)nc2sc(C(N)=O)c(N)c12` [3-Amino-6-(4-methylamino-piperidin-1-yl)-4-propyl-thieno[2,3-b] pyridine-2-carboxylic acid amide], the IC50 was ≤ 10 µM. `CCCc1cc(N2CCC(NCC(O)c3ccc(C(=O)NCc4cccc(C(N)=O)c4)cc3)CC2)nc2sc(C(N)=O)c(N)c12` (centres unmarked) [3-Amino-6-(4-{2-[4-(3-carbamoyl-benzylcarbamoyl)-phenyl]-2-hydroxy-ethylamino}-piperidin-1-yl)-4-propyl-thieno[2,3-b] pyridine-2-carboxylic acid amide] was tested, and the IC50 was ≤ 10 µM.
